This is an account of results in publication PMC10924921, “Mi-2β promotes immune evasion in melanoma by activating EZH2 methylation” (Nature Communications, 2024).

Each structure is given as a SMILES string.

Common to all, as to assay: biochemical
Set-up in all cases: KINOMEscan active-site competition binding panel (468 kinase assays), per cent of control at 1000 nM
What all share (settings): KINOMEscan per cent of control (binding competition); read-out: Percent Control

One assay has as its target CAMK4 (Homo sapiens, UniProt Q16566). An excerpt: (§1) Figure S7 / Percent Control
Another assay deals with T1, CDC2L2 (Homo sapiens, UniProt Q9UQ88).
T1 construct: gene CDK11A
From the text: as §1

A further assay addresses T2, DCAMKL3 (Homo sapiens, UniProt Q9C098).
T2 construct: gene DCLK3
From the text: as §1

The target of assay [1] is EGFR(L747-E749del, A750P) (Homo sapiens, UniProt P00533, A750P/DEL747-749).
From the text: as §1

The target of assay [2] is EGFR(L747-S752del, P753S) (Homo sapiens, UniProt P00533, DEL747-752/P753S).
From the text: as §1

For another assay, the target named is ERBB2 (Homo sapiens, UniProt P04626).
From the text: as §1

The target in the next assay is T3, ERK4 (Homo sapiens, UniProt P31152).
T3 construct: gene MAPK4
T3 sequence (P31152 whole entry): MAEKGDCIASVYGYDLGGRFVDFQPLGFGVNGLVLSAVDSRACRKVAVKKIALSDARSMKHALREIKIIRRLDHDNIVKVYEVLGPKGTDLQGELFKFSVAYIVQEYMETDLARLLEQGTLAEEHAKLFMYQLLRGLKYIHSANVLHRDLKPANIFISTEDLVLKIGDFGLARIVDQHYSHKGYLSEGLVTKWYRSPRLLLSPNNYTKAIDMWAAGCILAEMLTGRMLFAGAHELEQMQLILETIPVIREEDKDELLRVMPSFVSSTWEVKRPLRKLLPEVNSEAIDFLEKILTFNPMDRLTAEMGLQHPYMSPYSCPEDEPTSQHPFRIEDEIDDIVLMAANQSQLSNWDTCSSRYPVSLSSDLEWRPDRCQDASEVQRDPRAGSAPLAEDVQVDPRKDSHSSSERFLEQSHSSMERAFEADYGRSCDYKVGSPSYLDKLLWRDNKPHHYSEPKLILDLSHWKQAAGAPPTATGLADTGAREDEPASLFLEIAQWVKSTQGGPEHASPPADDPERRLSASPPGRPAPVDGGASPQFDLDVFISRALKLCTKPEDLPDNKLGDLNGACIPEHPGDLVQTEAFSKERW
From the text: as §1

The next assay addresses FGFR3(G697C) (Homo sapiens, UniProt P22607, G697C).
From the text: as §1

The next assay addresses FLT3(ITD,F691L) (Homo sapiens, UniProt P36888, F691L/ITD).
From the text: as §1

The next assay concerns the target GRK1 (Homo sapiens, UniProt Q15835).
From the text: as §1

For another assay, the target named is HIPK4 (Homo sapiens, UniProt Q8NE63).
From the text: as §1

Another assay deals with LRRK2(G2019S) (Homo sapiens, UniProt Q5S007, G2019S).
From the text: as §1

The target in a further assay is MAP4K4 (Homo sapiens, UniProt O95819).
From the text: as §1

A further assay addresses T4, MEK6 (Homo sapiens, UniProt P52564).
T4 construct: gene MAP2K6
From the text: as §1

In the next assay the target is T5, MST2 (Homo sapiens, UniProt Q13188).
T5 construct: gene STK3
T5 sequence (Q13188 whole entry): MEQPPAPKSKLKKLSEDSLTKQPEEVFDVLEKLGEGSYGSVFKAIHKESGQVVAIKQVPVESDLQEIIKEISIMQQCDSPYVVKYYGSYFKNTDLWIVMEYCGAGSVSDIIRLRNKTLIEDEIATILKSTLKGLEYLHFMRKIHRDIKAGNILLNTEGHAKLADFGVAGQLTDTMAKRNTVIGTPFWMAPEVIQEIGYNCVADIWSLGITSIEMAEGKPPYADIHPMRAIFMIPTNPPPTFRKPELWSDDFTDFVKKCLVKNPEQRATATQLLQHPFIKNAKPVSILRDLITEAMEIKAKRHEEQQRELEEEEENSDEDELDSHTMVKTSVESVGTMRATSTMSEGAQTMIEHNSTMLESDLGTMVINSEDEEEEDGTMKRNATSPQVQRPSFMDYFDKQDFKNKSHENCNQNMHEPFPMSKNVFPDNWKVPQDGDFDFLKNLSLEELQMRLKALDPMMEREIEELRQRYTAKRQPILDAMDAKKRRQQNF
From the text: as §1

The next assay concerns the target MYO3B (Homo sapiens, UniProt Q8WXR4).
From the text: as §1

Another assay has as its target NEK4 (Homo sapiens, UniProt P51957).
From the text: as §1

The target in a further assay is T6, PAK7 (Homo sapiens, UniProt Q9P286).
T6 construct: gene PAK5
T6 sequence (Q9P286 whole entry): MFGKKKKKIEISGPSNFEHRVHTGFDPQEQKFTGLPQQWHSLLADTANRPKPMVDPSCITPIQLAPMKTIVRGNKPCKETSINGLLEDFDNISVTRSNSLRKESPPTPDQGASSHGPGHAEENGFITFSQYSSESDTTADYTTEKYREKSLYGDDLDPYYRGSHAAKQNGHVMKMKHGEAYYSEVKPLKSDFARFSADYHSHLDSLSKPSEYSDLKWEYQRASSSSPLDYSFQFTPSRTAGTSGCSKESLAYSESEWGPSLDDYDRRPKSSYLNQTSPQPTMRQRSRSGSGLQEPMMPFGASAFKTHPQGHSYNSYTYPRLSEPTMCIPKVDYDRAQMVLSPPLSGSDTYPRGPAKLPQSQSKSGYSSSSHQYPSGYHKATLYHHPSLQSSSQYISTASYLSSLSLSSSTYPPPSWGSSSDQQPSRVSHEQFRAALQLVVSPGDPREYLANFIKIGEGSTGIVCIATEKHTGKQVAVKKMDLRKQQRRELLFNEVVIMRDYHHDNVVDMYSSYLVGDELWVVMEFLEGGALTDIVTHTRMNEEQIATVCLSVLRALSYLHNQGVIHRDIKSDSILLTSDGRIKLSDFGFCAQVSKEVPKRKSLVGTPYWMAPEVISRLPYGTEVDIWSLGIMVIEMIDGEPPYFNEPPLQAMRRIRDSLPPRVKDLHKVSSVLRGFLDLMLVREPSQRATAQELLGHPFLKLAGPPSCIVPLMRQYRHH
From the text: as §1

Another assay deals with PIK3CA(I800L) (Homo sapiens, UniProt P42336, I800L).
From the text: as §1

Another assay has as its target PIM2 (Homo sapiens, UniProt Q9P1W9).
From the text: as §1

For the next assay, the target named is T7, PKAC-beta (Homo sapiens, UniProt P22694).
T7 construct: gene PRKACB
From the text: as §1

Assay [3] concerns the target T8, RSK1(Kin.Dom.2-C-terminal) (Homo sapiens, UniProt Q15418).
T8 construct: gene RPS6KA1; Kin.Dom.2-C-terminal
From the text: as §1

In the next assay the target is SIK2 (Homo sapiens, UniProt Q9H0K1).
From the text: as §1

In a further assay the target is TNK1 (Homo sapiens, UniProt Q13470).
From the text: as §1

FGFR3(G697C), sequence (P22607 whole entry G697C): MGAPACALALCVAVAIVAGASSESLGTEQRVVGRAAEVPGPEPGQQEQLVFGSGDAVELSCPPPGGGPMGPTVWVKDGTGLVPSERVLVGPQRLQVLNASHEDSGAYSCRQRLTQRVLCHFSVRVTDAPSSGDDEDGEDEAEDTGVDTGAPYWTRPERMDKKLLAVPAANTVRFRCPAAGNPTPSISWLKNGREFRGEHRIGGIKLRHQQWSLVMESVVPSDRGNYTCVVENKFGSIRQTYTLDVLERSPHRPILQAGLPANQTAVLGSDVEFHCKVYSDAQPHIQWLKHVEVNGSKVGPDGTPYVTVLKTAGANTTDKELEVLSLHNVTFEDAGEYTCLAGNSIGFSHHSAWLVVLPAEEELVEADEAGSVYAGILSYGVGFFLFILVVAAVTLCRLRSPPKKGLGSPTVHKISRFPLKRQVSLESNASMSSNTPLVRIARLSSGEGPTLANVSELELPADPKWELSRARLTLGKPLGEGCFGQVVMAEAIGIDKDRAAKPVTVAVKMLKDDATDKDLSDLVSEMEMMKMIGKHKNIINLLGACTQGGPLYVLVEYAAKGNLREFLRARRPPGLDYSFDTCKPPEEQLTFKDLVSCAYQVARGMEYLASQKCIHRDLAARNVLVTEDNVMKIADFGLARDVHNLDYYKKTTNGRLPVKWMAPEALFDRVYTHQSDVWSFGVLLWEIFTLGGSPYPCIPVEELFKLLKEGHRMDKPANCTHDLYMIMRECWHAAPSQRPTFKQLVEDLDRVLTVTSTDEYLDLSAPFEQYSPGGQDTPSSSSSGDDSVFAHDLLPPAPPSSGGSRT
GRK1, sequence (Q15835 whole entry): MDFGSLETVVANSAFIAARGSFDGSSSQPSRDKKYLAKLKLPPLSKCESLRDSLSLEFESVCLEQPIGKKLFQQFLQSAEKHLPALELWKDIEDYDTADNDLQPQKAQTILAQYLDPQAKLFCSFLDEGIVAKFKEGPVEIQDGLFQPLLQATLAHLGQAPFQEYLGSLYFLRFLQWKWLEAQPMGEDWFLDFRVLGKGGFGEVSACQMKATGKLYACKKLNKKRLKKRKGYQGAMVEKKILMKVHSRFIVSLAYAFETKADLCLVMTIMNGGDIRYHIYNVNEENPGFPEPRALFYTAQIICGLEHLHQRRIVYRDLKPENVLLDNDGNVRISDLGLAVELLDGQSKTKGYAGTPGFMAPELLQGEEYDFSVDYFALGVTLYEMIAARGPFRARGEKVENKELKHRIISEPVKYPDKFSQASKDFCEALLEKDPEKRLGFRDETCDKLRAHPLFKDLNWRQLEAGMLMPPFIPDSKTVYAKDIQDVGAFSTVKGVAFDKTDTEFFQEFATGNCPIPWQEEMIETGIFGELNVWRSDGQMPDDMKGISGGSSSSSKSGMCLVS
MYO3B, sequence (Q8WXR4 whole entry): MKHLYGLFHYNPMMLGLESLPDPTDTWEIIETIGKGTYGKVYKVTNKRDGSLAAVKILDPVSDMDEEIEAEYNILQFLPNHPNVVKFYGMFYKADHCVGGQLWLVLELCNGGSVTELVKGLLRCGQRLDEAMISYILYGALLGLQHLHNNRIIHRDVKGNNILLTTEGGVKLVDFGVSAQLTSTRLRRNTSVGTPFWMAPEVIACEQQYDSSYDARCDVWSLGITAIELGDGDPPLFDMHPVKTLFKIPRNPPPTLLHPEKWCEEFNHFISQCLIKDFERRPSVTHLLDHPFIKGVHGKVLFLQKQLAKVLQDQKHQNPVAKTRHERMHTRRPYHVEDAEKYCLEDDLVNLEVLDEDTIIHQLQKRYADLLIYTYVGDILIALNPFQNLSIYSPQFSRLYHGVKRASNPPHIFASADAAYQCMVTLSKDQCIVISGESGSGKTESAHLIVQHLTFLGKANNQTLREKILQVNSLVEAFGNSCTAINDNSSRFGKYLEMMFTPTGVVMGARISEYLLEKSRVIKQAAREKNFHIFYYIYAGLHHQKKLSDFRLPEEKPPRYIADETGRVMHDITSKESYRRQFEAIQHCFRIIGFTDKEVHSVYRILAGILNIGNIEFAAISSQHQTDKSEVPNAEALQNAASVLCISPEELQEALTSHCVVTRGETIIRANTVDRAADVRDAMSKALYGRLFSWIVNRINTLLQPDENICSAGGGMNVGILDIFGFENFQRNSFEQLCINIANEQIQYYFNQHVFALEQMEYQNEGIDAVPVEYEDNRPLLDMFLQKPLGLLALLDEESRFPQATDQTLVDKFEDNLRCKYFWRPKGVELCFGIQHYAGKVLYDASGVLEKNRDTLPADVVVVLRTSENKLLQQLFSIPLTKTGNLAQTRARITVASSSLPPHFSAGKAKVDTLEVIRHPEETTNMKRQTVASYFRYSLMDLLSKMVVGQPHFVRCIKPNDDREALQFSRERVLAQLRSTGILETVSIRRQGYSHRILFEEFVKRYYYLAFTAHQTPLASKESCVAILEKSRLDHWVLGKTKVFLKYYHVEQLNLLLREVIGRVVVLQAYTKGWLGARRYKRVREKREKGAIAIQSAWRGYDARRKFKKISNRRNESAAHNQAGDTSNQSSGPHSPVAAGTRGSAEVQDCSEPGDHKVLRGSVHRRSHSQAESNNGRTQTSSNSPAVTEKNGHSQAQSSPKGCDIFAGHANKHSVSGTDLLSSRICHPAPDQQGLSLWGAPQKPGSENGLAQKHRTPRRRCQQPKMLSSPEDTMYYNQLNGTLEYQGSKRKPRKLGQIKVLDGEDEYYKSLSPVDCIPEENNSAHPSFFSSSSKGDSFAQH
T4 sequence (P52564 whole entry): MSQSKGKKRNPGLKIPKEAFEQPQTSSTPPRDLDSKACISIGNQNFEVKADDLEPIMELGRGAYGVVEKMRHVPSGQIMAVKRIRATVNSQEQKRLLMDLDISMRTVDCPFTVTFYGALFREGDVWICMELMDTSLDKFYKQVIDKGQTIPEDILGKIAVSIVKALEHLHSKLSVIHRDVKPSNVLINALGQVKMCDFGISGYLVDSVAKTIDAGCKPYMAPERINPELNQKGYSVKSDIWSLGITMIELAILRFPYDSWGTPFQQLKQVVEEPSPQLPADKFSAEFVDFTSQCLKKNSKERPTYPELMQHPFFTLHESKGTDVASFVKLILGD

`Cn1c(=O)[nH]c2ccc(-c3cccc(C(=O)NC4CCn5ccnc5C4)c3)cc21` (stereo not drawn) [Z36-MP5]: the remaining binding at 1 µM on CAMK4 came out at 98%; on CDC2L2 it was 99%; at DCAMKL3 it was 92%; in assay [1], 90%; in assay [2], 51%; at ERBB2 it was 100%. Besides, the remaining binding at 1 µM on ERK4 came out at 91%; at FGFR3(G697C), 49%; on FLT3(ITD,F691L), 57%; on GRK1, 29%; on HIPK4, 91%; on LRRK2(G2019S), 59%. Further, the remaining binding at 1 µM stood at 67% at MAP4K4; 99% on MEK6; 93% at MST2; 91% at MYO3B; 69% at NEK4; 92% at PAK7. Moreover, the remaining binding at 1 µM is 94% on PIK3CA(I800L); 91% at PIM2; 96% on PKAC-beta; 98% in [3]; 81% on SIK2; 77% at TNK1.
